{"source": "paper PMC4931847", "about": "“Preclinical validation of a novel compound targeting p70S6 kinase in breast cancer” (Aging (Albany NY), 2016)", "key": {"advanced solid tumors": {"tested_on": "advanced solid tumors", "set-up": "method as in PMID 24456794, PMID 24440085", "conditions": "cited from earlier work"}, "MDA-MB-231 cells": {"tested_on": "MDA-MB-231 cells", "assay": "Soft agar anchorage-independent growth assay", "assay_type": "cell-based, human", "conditions": "MDA-MB-231, soft agar, 3% WF, 10 or 20μM, three weeks", "source_text": "Vinculin was used as loading control. (B) Same as in (A) but the analysis was focused on STAT3 and Src signaling pathways. Actin was used as loading control. […] Two weeks later plates were stained with crystal violet and colonies photographed (C) and counted (D). […] After three weeks, colonies were photographed (E) and counted (F). Values reported in (D) and (F) represent the mean (± S.D.) of two independent experiments performed in duplicate. * p<0.05; ** p<0.01; *** p<0.001.\nBoth number and size of the colonies were affected, signifying that, in this context, activity of p70S6K was necessary for both survival and proliferation of breast cancer cells (Fig. 2E and F).\nThe experiments were performed in six-well tissue culture plates, in triplicate. Fresh medium was added to the wells twice a week as a feeder layer. After three weeks, the number of colonies was counted at 4X magnification."}, "[1]": {"tested_on": "breast cancer local relapse", "set-up": "method as in PMID 23899505, PMID 24661902, PMID 18316551", "conditions": "mouse model of breast cancer ref 9,10,24; cited from earlier work"}}, "data": [{"compound": "Cc1ccc(S(=O)(=O)O)cc1.Cn1cc(-c2ccc(F)c(C(F)(F)F)c2)nc1C1CCN(c2ncnc3[nH]ncc23)CC1", "note": "[LY2584702 tosylate]", "values": [{"measurement": "clinical benefit", "setting": "advanced solid tumors; alone or in combination with erlotinib or everolimus, phase I trials ref 11,12", "result": "very limited clinical benefit"}, {"measurement": "tolerability", "setting": "advanced solid tumors; particularly when administered with erlotinib ref 11,12", "result": "low tolerability"}]}, {"compound": "CCc1cncnc1N1CCN(Cc2nc3ccc(C(F)(F)F)cc3[nH]2)CC1", "note": "[PF-4708671]", "values": [{"measurement": "ability to survive and grow in anchorage independence", "setting": "MDA-MB-231 cells", "result": "significantly decreased"}, {"measurement": "breast cancer local relapse", "setting": "[1]", "result": "strongly impaired"}]}]}
